# Legend:
# GAL-RXR + RAR LBD = molecular target: T1, GAL-RXR + RAR LBD (Homo sapiens, UniProt P10276+P19793); assay: Transient transfection analysis of GAL-RXR LBD in the presence of RAR LBD; assay type: cell-based
# T1 construct: human RXRα LBD (Glu 203 - Thr 462); HRARα LBD (Glu 156 - PRO 462); expressed in transfected cells; host or cells: CV-1
# T1 sequence (P19793 203-462): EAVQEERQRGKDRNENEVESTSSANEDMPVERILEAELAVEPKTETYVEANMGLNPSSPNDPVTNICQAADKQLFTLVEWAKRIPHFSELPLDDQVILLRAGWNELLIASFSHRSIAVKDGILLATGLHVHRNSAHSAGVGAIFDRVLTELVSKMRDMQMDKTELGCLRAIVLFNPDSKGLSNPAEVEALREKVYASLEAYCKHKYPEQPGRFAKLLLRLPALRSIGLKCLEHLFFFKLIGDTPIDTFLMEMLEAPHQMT
# T1 sequence (P10276 156-462): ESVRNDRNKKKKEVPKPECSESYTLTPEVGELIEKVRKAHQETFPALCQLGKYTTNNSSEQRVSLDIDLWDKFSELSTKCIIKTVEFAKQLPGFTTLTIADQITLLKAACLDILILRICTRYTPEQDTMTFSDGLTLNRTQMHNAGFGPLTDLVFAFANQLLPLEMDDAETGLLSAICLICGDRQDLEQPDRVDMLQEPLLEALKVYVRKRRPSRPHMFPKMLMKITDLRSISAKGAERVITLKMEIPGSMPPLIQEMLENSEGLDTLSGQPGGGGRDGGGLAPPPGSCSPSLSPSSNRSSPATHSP
# Experimental: (§1) CV-1 cells were grown in Dulbecco's Modified Eagle's medium supplemented with 10% resin-charcoal stripped (Samuels et al., Endocrinology 105:80-85 (1979)) fetal bovine serum, 50 U/ml penicillin G and 50 μg/ml streptomycin sulfate (DMEM-FBS) at 37° C. in 5% CO2. One day prior to transfection, cells were plated to 50-80% confluence using phenol-red free DMEM-FBS. Cells were transfected by lipofection using N-{2-(2,3)-dioleoyloxy)propyl-N,N,N-trimethyl ammonium methyl sulfate} according to the manufacturer's instructions (DOTAP, Boehringer Mannheim). […]. All points were performed in triplicate in each experiment and varied by less than 10%. Each experiment was repeated three or more times with similar results.
# Thus, a chimeric protein was constructed containing the yeast GAL4 DBD linked to the RXR LBD (GAL-RXR). The ability of this RXR-chimera to respond to LG69 was initially examined in the presence of truncated receptors containing the LBDs of T3R or RAR. Thus, transient transfection analysis of GAL-RXR LBD was carried out in the presence of T3R, RAR or VDR LBDs. Reporter constructs contained 4 copies of the UASG cloned upstream of the TK-LUC reporter. […] Normalized luciferase activity was determined and plotted as reporter activity (see FIG. 3).
# […]. Normalized luciferase activity was determined and plotted as fold-activation relative to untreated cells.
# RXR = molecular target: T2, RXR (Homo sapiens, UniProt P19793); assay: Transient transfection of RXR on CRBPII TK-LUC reporter; assay type: cell-based; details: limiting RXR (20 ng/10^5 cells); LG69
# T2 construct: transient transfection analysis of full-length Nurrl and/or RXR; expressed in transfected cells; host or cells: CV-1
# T2 sequence (P19793 1-462): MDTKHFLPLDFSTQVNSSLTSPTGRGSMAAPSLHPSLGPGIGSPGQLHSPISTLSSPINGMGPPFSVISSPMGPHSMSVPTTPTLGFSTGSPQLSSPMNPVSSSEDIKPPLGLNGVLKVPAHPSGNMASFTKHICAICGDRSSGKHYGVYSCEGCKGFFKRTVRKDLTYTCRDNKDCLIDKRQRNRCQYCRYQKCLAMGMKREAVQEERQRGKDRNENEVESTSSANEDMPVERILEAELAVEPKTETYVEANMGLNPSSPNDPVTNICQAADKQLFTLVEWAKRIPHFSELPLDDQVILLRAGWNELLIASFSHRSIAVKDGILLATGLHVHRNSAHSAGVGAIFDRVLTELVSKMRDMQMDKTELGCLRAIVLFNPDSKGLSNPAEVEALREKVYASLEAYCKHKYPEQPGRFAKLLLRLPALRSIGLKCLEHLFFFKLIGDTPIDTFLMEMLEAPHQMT
# Experimental: as §1
# Using sub-optimal amounts of RXR-expression vector, the CRBPII reporter was compared with a 3-copy NBRE reporter as follows. Cells were transfected as described with respect to FIG. 7B, but with a 5-fold lower amount of CMX-hRXRα (20 ng/10^5 cells). CRBPII TK-LUC (300 ng/10^5 cells) was used where indicated.
# GST-RXR/RAR heterodimers = molecular target: T3, GST-RXR/RAR heterodimers (Homo sapiens, UniProt P10276+P19793); assay: Ligand binding assay with GST-RXR/RAR heterodimers
# T3 sequence (P19793 1-462): T2 sequence (P19793 1-462)
# T3 sequence (P10276 1-462): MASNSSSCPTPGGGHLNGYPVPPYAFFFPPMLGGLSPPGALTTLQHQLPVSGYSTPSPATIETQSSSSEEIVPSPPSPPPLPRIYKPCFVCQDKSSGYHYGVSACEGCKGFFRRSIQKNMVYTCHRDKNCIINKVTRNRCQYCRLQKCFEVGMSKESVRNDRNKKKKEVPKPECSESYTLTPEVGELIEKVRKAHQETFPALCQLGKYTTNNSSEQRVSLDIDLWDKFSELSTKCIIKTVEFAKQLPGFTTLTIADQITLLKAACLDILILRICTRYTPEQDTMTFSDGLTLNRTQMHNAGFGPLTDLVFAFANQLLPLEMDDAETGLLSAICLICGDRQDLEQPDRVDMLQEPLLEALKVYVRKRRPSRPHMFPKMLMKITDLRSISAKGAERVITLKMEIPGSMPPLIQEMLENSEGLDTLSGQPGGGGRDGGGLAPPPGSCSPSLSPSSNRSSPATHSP
smiles,measurement,setting,value
"CC=C(c1ccc(C(=O)O)cc1)c1cc2c(cc1C)C(C)(C)CCC2(C)C [LG69, 4-{1-(3,5,5,8,8-pentamethyl-5,6,7,8-tetrahydro-2-napthalenyl)-1-propenyl}benzoic acid]",transcriptional activity with Am580+LG69 over that seen with AM580 alone,"GAL-RXR + RAR LBD; GAL-RXR + RAR LBD, 50 nM AM580+100 nM LG69",increased transcriptional activity
same,fold-responsiveness of GAL-RXR to LG69,"GAL-RXR + RAR LBD; unliganded RAR LBD present, 100 nM LG69",strongly suppressed
same,activation of the CRBPII reporter,RXR,minimal activation
same,competition of [3H] 9-cis RA binding by addition of both Am580 and LG69,"GST-RXR/RAR heterodimers; 50 nM [3H] 9-cis RA, 2 μM Am580 + 2 μM LG69",Nearly complete competition
same,decrease in the amount of [3H] LG69 bound to GST-RXR on addition of RAR,"GST-RXR/RAR heterodimers; 50 nM [3H] LG69, 500 ng hRARα",< 85%

# Source: patent US20030083469A1, “Allosteric control of nuclear hormone receptors” (The Salk Institute for Biological Studies, priority 1995, published 2003)
